Test results as given in patent US4933368A, “N-phenylbenzamide derivatives” (Godecke Aktiengesellschaft, priority 1983, dated 1990).
“Also recorded” adds a separate entry of the source. Like-named read-outs stand apart in the source and are kept apart here.

Tests used:
Distribution coefficient = assay type: physicochemical; details: n-octanol/water pH 7.4/20° C.; read-out: log VK (distribution coefficient)
Description: This is also the case with intragastric application, as shown by certain pharmacological effects.

[1] = system: Mammary adenocarcinoma 25; experiment: Mammary adenocarcinoma 25 (CCTM test); assay type: in vivo, mice
Method: (§7) The CCTM assay assesses the antitumor activity of a test agent by measurement of the treatment-induced delay of tumor growth. Tumor growth delay is used because, unlike T/C type assays, the measured parameter is independent of time.
(§8) Test animals are Fl hybrid mice derived from the inbred strain of tumor origin. After the required mice are randomized, they receive SC implants of either trocar fragments (30-50 mg) or appropriate dilutions of tumor brei on Day 0. Samples for each donor tumor or from the final brei are incubated in thioglycolate media as a check for gross contamination of the tumor material. After tumor inoculation, the test mice are rerandomized and distributed to test group as per the specific test protocol.
Survival is checked daily for each test group. Both the number dead and the number living are counted and recorded. All dead mice are autopsied to ascertain the probable cause of death (drug or tumor). Clinical signs are observed and recorded for all test groups. Individual body weights are recorded at least weekly as directed in the specific test protocol. Each tumor is measured with calipers as per the protocol (usually two to three times/week).
Any surviving animal with a tumor that is larger than the smallest lethal control tumor for two successive measurements will be sacrificed unless:
This time may be calculated as:
Td=tumor volume doubling time (days), calculated from the slope of a long-linear least squares fit of the growth curve between 63 and 1000 mg for each control tumor. The mean value for the control group is used for all other calculations that require Td.
T,C=median time in days for the tumor in a given group to reach a predetermined evaluation size (usually 750 mg). T=treated groups/C=control group. These values are calculated by log/linear interpolation between the nearest tumor measurements on either side of the evaluation size.
T-C=tumor growth delay in days (treatment minus control).
Gross Log Kill=total number of logs of tumor cell kill produced by the given treatment regimen.
Gross Kill=(T-C)/3.32*Td)
Net Log Kill=the difference in logs between the tumor burden after the last treatment and the initial pretreatment burden. Net kill reflects the effectiveness of the overall therapy accounting for the growth of the tumor between individual treatments of the therapeutic regimen. Net kill allows valid comparisons of different treatment regimens, i.e., those with different durations of treatment that allow different amounts of tumor growth during therapy.
Net Kill=[(T-C)-DRx]/(3.32*Td)
(§9) All tumor-free survivors (cures) are excluded from the calculation of T-C and cell kill values. Thus, all calculated end points represent the response of the treatment failures.

Lewis Lung Tumor = experiment: Lewis Lung Tumor, growth retardation in mice; assay type: in vivo, BCBA mice; details: for Surviving Animals: n = 5
Method: (§1) Preparation: As suspension freshly prepared
(§2) before each administration
(§3) Route of Oral, suspended in 0.8%
(§4) administration: Methocel
(§5) Volume: 0.01 per gram body weight
(§6) daily for 9 days, if not
Lewis Lung Tumor in BCBA mice. The procedure is the same as with osteosarcoma. The volume of the tumor was determined here at 800 mm^3 (=product of the diameters in three dimensions).

[2] = system: Mammary adenocarcinoma 16; experiment: Mammary adenocarcinoma 16 (CCTM test); assay type: in vivo, mice; details: SC PO, Days 1-16, 56 mg/kg
Method: as §7, §8
Survival is checked daily for each test group. Both the number dead and the number living are counted and recorded. All dead mice are autopsied to ascertain the probable cause of death (drug or tumor). Clinical signs are observed and recorded for all test groups. Individual body weights are recorded at least weekly as directed in the specific test protocol. Each tumor is measured with calipers as per the protocol (usually two to three times/week). […]
This time may be calculated as:
Td=tumor volume doubling time (days), calculated from the slope of a long-linear least squares fit of the growth curve between 63 and 1000 mg for each control tumor. […]
T,C=median time in days for the tumor in a given group to reach a predetermined evaluation size (usually 750 mg). […] These values are calculated by log/linear interpolation between the nearest tumor measurements on either side of the evaluation size. […]
as §9

allogeneic skin grafts = experiment: Skin graft survival test in rhesus monkeys; assay type: in vivo, rhesus monkeys (Macaca mulatta); details: for lengthening of the normal graft survival time: 10 mg/kg i.g. 1× daily for 10 days, vs normal survival stated as ten days
Method: Preparation: Freshly prepared before each
Route of Intragastric via stomach tube,
administration: suspended in 0.8% Methocel
Altogether four allogeneic skin grafts from two different donor animals are transferred crosswise to one unrelated receiving animal. At first the grafts are removed under ketamine narcosis from the shaven and cleaned stomach skin of the donor animals and freed of any fat attached. The four graft receptor sites are prepared on the shaven and cleaned back of the receiving animal under ketamine narcosis by removing suitably sized pieces of skin. Subsequent to successful hemostasis, the grafts are spread out on the graft receptor sites and sewn to the edges of the wound. The wound is covered with a suitable dressing material and this is fixed with an elastic bandage. The bandage is opened on the 5th, 7th, and 9th day after grafting and the function of the grafts examined. On the 9th day the bandage is no longer replaced. The graft function is then controlled daily until rejection has occurred.
Controls are dispensed within this trial on primates for ethical reasons. Comparisons are drawn with the normal survival of allogeneic skin grafts or historic controls, stated as ten days.

L5222 leukemia = L5222 leukemia (CCLS test); assay type: in vivo, mice; details: IP PO
Description: The two types of assays used were the standard CCTM test for solid tumors and the CCLS test for leukemia.
The CCLS assay assesses the antitumor activity of a test agent by measurement of the treatment-induced increase in host lifespan. Only rapidly growing tumors that kill their respective hosts in less than 30 days are appropriate for life span assays.
Test animals are appropriate Fl hybrid mice derived for the inbred strain of tumor origin. After the required mice are randomized, they receive implants (IP, IV, IC, IM, or SC) of appropriately diluted ascites fluid or dilutions of tumor brei on Day 0. […]
Test agents are dissolved or suspended in any of several vehicles and are administered by the routes and treatment schedules specified on the test protocol. All animals are monitored for signs of acute toxicity and side effects.
Survival is checked daily for each test group. Both the number dead and the number living are counted and recorded. […] Clinical signs are observed and recorded for all test groups. Group body weights are recorded at least weekly as directed in the specific test protocol. […]
Td=tumor volume doubling time (days), calculated from the slope of a log-linear least square fit of the survival time vs inoculum curve for titrated inocula of tumor cells in untreated mice.
MLS=median life span, calculated by a method appropriate for grouped observations. […]

growing hair follicle = experiment: Antiproliferative activity upon topical administering to rats (hair growth); assay type: in vivo, Long Evans rats; details: 0.5% solution in absolute ethanol, 5-10 mg/animal daily
Method: No control standard known
Preparation: Fresh before each
Route of Topically by pipetting as
administration: 0.5% solution in absolute
Volume: 1 ml per animal and dose
Tested dose: 5 mg/animal daily for 14 days
10 mg/animal daily for 7 days
A protective collar is placed on male rats of the Long Evans strain, fur color "black-hooded." A rectangle measuring 3 cm long and 1.5 cm wide is marked with the aid of a template on the dorsal skin in the region of the black dorsal hair strip subsequent to shaving and cleansing. The test solution is slowly applied dropwise to this rectangle, so as to avoid it running off onto the surrounding skin. The solvent is applied in the same manner to the control animals. After 21 days of treatment the hair growth is assessed on the treated areas compared with the control areas.

Pentetrazole-convulsion = Pentetrazole-convulsion model; assay type: in vivo; details: Mus musculus, po; i.g., mice
L1210 leukemia = assay type: in vivo, CD2 mice; details: for Mean Survival Time: controls 8; for % Increase in Mean Survival Time (toxic death): mouse, in vivo, po
Description: as §1, §2, §3, §4, §5, §6
L 1210/Rij adaptation of L1210 leukemia in CD2 mice (C57B1×DBA2,Fl hybrid). On the day before administration of the substance 10^5 leukemic cells are inoculated intraperitoneally. The cages are controlled 2×X daily for dead animals. The terminal point is the mean survival of five mice/dosage compared with ten untreated controls.

Osteosarcoma C22LR = experiment: Osteosarcoma C22LR, growth retardation in mice; assay type: in vivo, BCBA mice; details: for Surviving Animals: n = 5
Method: as §1, §2, §3, §4, §5, §6
Osteosarcoma. C22LR in BCBA mice (C57B1×CBA/Rij, Fl hybrid). The tumor is subcutaneously inoculated bilaterally into the sides. It is measured at least 2×weekly in three dimensions. The terminal point is the retardation of growth. It is defined as the difference of the average time in which the volume of five to ten tumors in five treated animals reaches a given value in comparison with that of five to ten tumors in the control animals. This value was determined as four times that of the average volume at commencement of treatment.

In the case of `Nc1ccc(C(=O)Nc2ccccc2N)cc1` [Substance A, 4-Amino-N-(2'-aminophenyl)-benzamide], the logD (Distribution coefficient) is reported as 2.2, the “% T/C” value ([1]; SC PO, Days 3-24, 50 mg/kg) is reported as 0% and the cures ([1]; SC PO, Days 3-24, 50 mg/kg, 6 out of 10 cures) is reported as 6/10. The “(T-C) tumor growth delay” value ([1]; SC PO, Days 25-36, 50 mg/kg) was 16 days, the “Cell Kill Net” value ([1]; SC PO, Days 25-36, 50 mg/kg) was 1.6 logs and the anticancer activity ([1]; mammary 25) was “significant anticancer activity has been demonstrated and confirmed”. For the same compound, the “Surviving Animals” value (Lewis Lung Tumor; 1 × 240 mg/kg PO) was 5/5, the “Retardation in Growth of Tumor (Days)” value (Lewis Lung Tumor; 1 × 240 mg/kg PO, p = 0,018) was 3,1 Days and the “Retardation in Growth of Tumor (toxic death)” value (“Retardation … (toxic death)” below) (Lewis Lung Tumor; 2 × 180 mg/kg PO) was “toxic death”. For the same compound, the “Surviving Animals” value (Lewis Lung Tumor; 2 × 180 mg/kg PO) was 0/5, the “Retardation … (toxic death)” value (Lewis Lung Tumor; 4 × 120 mg/kg PO) was “toxic death” and the “Surviving Animals” value (Lewis Lung Tumor; 4 × 120 mg/kg PO) was 0/5. The “Surviving Animals” value (Lewis Lung Tumor; 9 × 60 mg/kg IP, controls 5/5) was 5/5, the “Retardation in Growth of Tumor (Days)” value (Lewis Lung Tumor; 9 × 60 mg/kg IP, p = 0,061) was 3,8 Days and the assessment of activity (Lewis Lung Tumor; mouse, in vivo) was “moderate activity”. For the same compound, the “(T-C) tumor growth delay” value [2] was 11 days, the “Cell Kill Gross” value [2] was 3.0 log10 and the “Cell Kill Net” value [2] was -1.2 logs. For the same compound, the immunosuppressive action (allogeneic skin grafts; rhesus monkeys, 10 mg/kg i.g., 10 mg/kg) was “distinct immunosuppressive action; also recorded: markedly clear”, the “lengthening of the normal graft survival time” value (allogeneic skin grafts; test animal YL) was “four to five” and the “lengthening of the normal graft survival time” value (allogeneic skin grafts; test animal ZE) was “six to seven”. For the same compound, the “% T/C” value (L5222 leukemia; Days 1, 4, 7, 48 mg/kg) was 150%, the “% T/C” value (L5222 leukemia; Days 1-9, 15 mg/kg) was 169% and the “inhibition of hair growth / topical antiproliferative action” value (growing hair follicle) was “clear inhibition of hair growth; also recorded: distinct antiproliferate action”. The ED50 (Pentetrazole-convulsion) was 44 mg/kg, the “Mean Survival Time” value (L1210 leukemia; 4 × 180 mg/kg PO, n = 5) was 5 days and the “Mean Survival Time” value (L1210 leukemia; 4 × 240 mg/kg PO, n = 5) was 5 days. The “Mean Survival Time” value (L1210 leukemia; 7 × 120 mg/kg PO, n = 5) was 6 days, the “% Increase in Mean Survival Time” value (L1210 leukemia; 9 × 60 mg/kg PO, n = 5) was 38% and the “Mean Survival Time” value (L1210 leukemia; 9 × 60 mg/kg PO, n = 5) was 11 days. The assessment of activity (L1210 leukemia; moderate dosage) was “significant activity”, the “% Increase in Mean Survival Time (toxic death)” value (“% Increase … (toxic death)” for short) (L1210 leukemia; 120 mg/kg) was “toxic death” and the “% Increase … (toxic death)” value (L1210 leukemia; 180 mg/kg) was “toxic death”. The “% Increase … (toxic death)” value (L1210 leukemia; 240 mg/kg) was “toxic death”, the “Surviving Animals” value (Osteosarcoma C22LR; 1 × 240 mg/kg PO) was 5/5 and the “Retardation in Growth of Tumor (Days)” value (Osteosarcoma C22LR; 1 × 240 mg/kg PO, p = 0,001) was 3,1 Days. For the same compound, the “Retardation in Growth of Tumor (Days)” value (Osteosarcoma C22LR; 2 × 180 mg/kg PO) was 9,6 Days, the “Surviving Animals” value (Osteosarcoma C22LR; 2 × 180 mg/kg PO) was 1/5 and the “Retardation … (toxic death)” value (Osteosarcoma C22LR; 4 × 120 mg/kg PO) was “toxic death”. For the same compound, the “Surviving Animals” value (Osteosarcoma C22LR; 9 × 60 mg/kg IP, controls 5/5) was 5/5, the “Retardation in Growth of Tumor (Days)” value (Osteosarcoma C22LR; 9 × 60 mg/kg IP, p = 0,0001) was 7,8 Days and the assessment of activity (Osteosarcoma C22LR; mouse, in vivo) was “good activity”.
